Target: Human immunodeficiency virus type 1 protease (Human immunodeficiency virus 1, UniProt Q72874)
Assay: Inhibitory activity against purified HIV-1 protease (BH10) at a pH of 4.7 and a final enzyme concentration of 0.45-1.1 nM

SMILES	IC50
CC(C)c1ccccc1Sc1c(O)cc(-c2cc(Cl)cc(Cl)c2)oc1=O	26 nM
Cc1cc(C)cc(-c2cc(O)c(Sc3ccccc3C(C)C)c(=O)o2)c1	15 nM
COC(=O)c1cc(-c2cc(O)c(Sc3ccccc3C(C)C)c(=O)o2)ccc1O	62 nM
CC(C)c1ccccc1Sc1c(O)cc(-c2ccc(C#N)cc2)oc1=O	205 nM
COc1ccc(-c2cc(O)c(Sc3ccccc3C(C)C)c(=O)o2)cc1	83 nM
CC(C)(C)NC(=O)[C@@H]1CCCCN1C[C@@H](O)[C@H](Cc1ccccc1)NC(=O)[C@H](CC(N)=O)NC(=O)c1ccc2ccccc2n1	10 nM
CC(C)c1ccccc1Sc1c(O)cc(-c2cccc(-c3ccccc3)c2)oc1=O	38 nM
CC(C)c1ccccc1Sc1c(O)cc(-c2ccccc2Cl)oc1=O	225 nM
CC(C)c1ccccc1Sc1c(O)cc(-c2cccc(O)c2)oc1=O	89 nM
CCOC(=O)c1cccc(-c2cc(O)c(Sc3ccccc3C(C)C)c(=O)o2)c1	1930 nM
CC(C)c1ccccc1Sc1c(O)cc(-c2ccc(O)cc2)oc1=O	54 nM
CCOC(=O)c1ccc(-c2cc(O)c(Sc3ccccc3C(C)C)c(=O)o2)cc1	35 nM
CC(C)c1ccccc1Sc1c(O)cc(-c2ccc(C(=O)O)cc2)oc1=O	68 nM
CC(C)c1ccccc1Sc1c(O)cc(-c2cccc(C(=O)O)c2)oc1=O	151 nM
COc1ccccc1-c1cc(O)c(Sc2ccccc2C(C)C)c(=O)o1	1420 nM
CC(C)c1ccccc1Sc1c(O)cc(-c2ccc(Cl)cc2)oc1=O	76 nM

SMILES	IC50
Cc1cccc(-c2cc(O)c(Sc3ccccc3C(C)C)c(=O)o2)c1	14 nM
CCOC(=O)c1cc(-c2cc(O)c(Sc3ccccc3C(C)C)c(=O)o2)ccc1O	148 nM
CC(C)c1ccccc1Sc1c(O)cc(-c2ccc(Cl)c(Cl)c2)oc1=O	22 nM
COC(=O)c1cccc(-c2cc(O)c(Sc3ccccc3C(C)C)c(=O)o2)c1	80 nM
CC(C)c1ccccc1Sc1c(O)cc(-c2ccc(F)cc2)oc1=O	124 nM
CC(C)c1ccccc1Sc1c(O)cc(-c2cccc(N(C)C)c2)oc1=O	114 nM
CC(C)c1ccccc1Sc1c(O)cc(-c2ccc(C(N)=O)cc2)oc1=O	135 nM
CC(C)c1ccccc1Sc1c(O)cc(-c2cccc(C(F)(F)F)c2)oc1=O	76 nM
CC(C)c1ccccc1Sc1c(O)cc(-c2cccc([N+](=O)[O-])c2)oc1=O	67 nM
CCc1cccc(-c2cc(O)c(Sc3ccccc3C(C)C)c(=O)o2)c1	262 nM
Cc1ccccc1-c1cc(O)c(Sc2ccccc2C(C)C)c(=O)o1	1340 nM
Cc1ccc(-c2cc(O)c(Sc3ccccc3C(C)C)c(=O)o2)cc1	59 nM
CC(C)c1ccccc1Sc1c(O)cc(-c2cccc(Cl)c2)oc1=O	23 nM
CC(C)c1ccccc1Sc1c(O)cc(-c2ccc(O)c(C(=O)O)c2)oc1=O	292 nM
CC(C)c1ccccc1Sc1c(O)cc(-c2ccc([N+](=O)[O-])cc2)oc1=O	191 nM

Reference: ChEMBL document CHEMBL1129760, “A topliss tree analysis of the HIV-protease inhibitory activity of 6-phenyl-4-hydroxy-pyran-2-ones” (Bioorg Med Chem Lett, 1996)
